Results published in article PMC10433220, “Oil palm kernel globulin antihypertensive peptides: isolation and characterization, ACE inhibition mechanisms, zinc-chelating activity, security and stability” (Frontiers in Pharmacology, 2023).
Where two headings read alike, the source gives them in different places. Where no end group is shown, it is not given here.

Tests used:
[1] = Zinc solubility of peptide-Zn complexes during simulated gastrointestinal digestion; assay type: in vitro ADME; details: simulated intestinal digestion, from 120 to 240 min; p < 0.05
Protocol: Simultaneously, 5 mg of the DOPKGH peptide-Zn complexes was mixed with 50 mL of simulated gastric digested mucus (pH 2.00 ± 0.10) ([Sun et al., 2021]). After shaking at 37°C and 135 rpm for 90 min, Na2HPO4 (0.5 mol/L) was added and the mixture was quickly stirred until the pH of the digest increased to 6.80 ± 0.10. […] The stability of DOPKGH peptide-Zn complexes was expressed as the residual zinc concentration after digestion and as a percentage of the zinc concentration before digestion.

ACE [2] = biological target: T1, ACE (Oryctolagus cuniculus, UniProt P12822); test: Stability of ACE inhibitory activity under simulated gastrointestinal hydrolysis; assay type: in vitro ADME
T1 construct: purchased Sigma (St. Louis, MO, United States)
T1 sequence (P12822 34-1310): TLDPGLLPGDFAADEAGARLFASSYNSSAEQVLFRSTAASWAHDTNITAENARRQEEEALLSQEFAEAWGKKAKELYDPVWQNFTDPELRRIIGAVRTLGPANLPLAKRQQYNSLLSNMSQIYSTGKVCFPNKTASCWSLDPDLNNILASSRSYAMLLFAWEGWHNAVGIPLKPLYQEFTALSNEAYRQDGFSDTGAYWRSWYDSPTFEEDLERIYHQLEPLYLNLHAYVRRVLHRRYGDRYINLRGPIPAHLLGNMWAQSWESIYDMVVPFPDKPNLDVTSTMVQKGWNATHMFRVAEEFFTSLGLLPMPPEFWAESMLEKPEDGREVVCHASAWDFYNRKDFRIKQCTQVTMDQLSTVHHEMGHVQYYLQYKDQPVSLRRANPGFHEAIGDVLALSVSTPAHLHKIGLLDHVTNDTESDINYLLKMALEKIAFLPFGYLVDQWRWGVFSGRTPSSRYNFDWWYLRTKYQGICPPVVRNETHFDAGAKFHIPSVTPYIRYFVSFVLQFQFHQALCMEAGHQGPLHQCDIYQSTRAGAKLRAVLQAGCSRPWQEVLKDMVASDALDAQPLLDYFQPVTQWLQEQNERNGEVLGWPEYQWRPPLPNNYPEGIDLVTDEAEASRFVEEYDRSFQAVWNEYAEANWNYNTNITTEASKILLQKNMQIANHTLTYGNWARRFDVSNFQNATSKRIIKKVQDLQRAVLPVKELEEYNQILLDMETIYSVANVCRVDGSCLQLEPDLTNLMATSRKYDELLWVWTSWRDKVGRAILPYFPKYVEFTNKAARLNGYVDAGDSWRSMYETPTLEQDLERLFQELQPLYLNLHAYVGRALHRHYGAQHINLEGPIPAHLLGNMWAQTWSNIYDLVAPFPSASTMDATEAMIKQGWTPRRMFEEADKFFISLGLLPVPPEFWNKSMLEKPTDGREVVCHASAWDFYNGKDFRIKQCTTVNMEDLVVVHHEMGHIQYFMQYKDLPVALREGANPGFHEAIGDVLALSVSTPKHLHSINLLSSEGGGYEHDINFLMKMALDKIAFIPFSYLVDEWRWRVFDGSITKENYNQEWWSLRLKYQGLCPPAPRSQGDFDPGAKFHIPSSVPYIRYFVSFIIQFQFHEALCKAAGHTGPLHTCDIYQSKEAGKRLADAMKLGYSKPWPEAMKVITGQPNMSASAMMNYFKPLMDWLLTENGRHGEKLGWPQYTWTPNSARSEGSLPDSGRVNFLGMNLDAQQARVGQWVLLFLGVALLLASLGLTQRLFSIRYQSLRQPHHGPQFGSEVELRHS
Protocol: (§1) ACE inhibitory activity was determined using the procedure described by [Zaharuddin et al. (2022)]. Briefly, ACE (25 mU) was pre-incubated at 37°C for 10 min. Then ACE (75 µL), 225 µL of HHL (8.3 mmol/L), and the peptide solution (75 µL) were mixed and stirred at 75 rpm and 37°C for 60 min. The reaction was stopped by adding 375 µL of HCl (1 mol/L). Afterward 2.1 mL of ethyl acetate was added to extract the hippuric acid produced. The mixture was centrifuged at 14,000 g for 150 s. Subsequently, 1 mL of the upper solution (ethyl acetate extraction) was transferred to a glass test tube and heated at 120°C for 32 min. The tube was cooled to 25°C, deionized water (1 mL) was added, and the absorbance was measured at 228 nm. The control group was subjected to the same procedure, but without samples. The ACE inhibition ability of the samples was defined as the percentage of the difference in absorbance at 228 nm between the sample and control as compared to the absorbance at 228 nm of the control. The concentration of peptides required to inhibit half of the ACE activity was defined as the IC50.
The simulation intestinal digest mucus (pH 6.80 ± 0.10) was composited of 6 g bile salt, 0.07 g pancreatin, 12.5 g NaHCO3, and 200 mL ultrapure water. […] The ACE inhibitory activity of the DOPKGH peptide was determined using untreated DOPKGH peptides for comparison.

ACE [3] = biological target: T1, ACE; test: ACE inhibitory activity (HHL substrate, hippuric acid absorbance at 228 nm); assay type: biochemical; details: synthesized peptide, untreated; ACE 25 mU, HHL 8.3 mmol/L, 37°C, 60 min, absorbance 228 nm; from regression y = 10.985 ln(x) ‒ 0.8859, R2 = 0.9458; read-out: ACE inhibition capacity (IC50)
Protocol: as §1

ACE [4] = biological target: T1, ACE; design: method as in 2 sources, one per row (each row's own in cited_ref): ref Wang et al., 2021 ||| ref Wei et al., 2022; details: cited from earlier work
[5] = Zn-chelating ability (4-(2-Pyridinazo)-resorcinol method); assay type: physicochemical; details: 350 μg sample, zinc sulfate 0.25 mmol/L, DTT, HEPES-KOH buffer, 37°C, 12 min, PAR method, absorbance 500 nm; mean ± SD, at least three repeats
Protocol: DOPKGH peptides (350 μg), 0.5 mL zinc sulfate solution (0.25 mmol/L), 0.5 mL DTT (8 mmol/L), 1 mL HEPES-KOH buffer (100 μmol/L), and 8 mL dH2O were mixed thoroughly ([Li et al., 2023]). After stirring at 175 r/min and 37°C for 12 min, the zinc concentration of the reaction solution was measured using the 4-(2-Pyridinazo)-resorcinol method ([Udechukwu et al., 2018]). The standard regression curve of the zinc concentration (x, μg/mL) with absorbance at 500 nm (y) was y = 0.0901n(x) + 0.1012, and R^2 = 0.9802 ([Li et al., 2023]). The zinc chelation rate was defined as the reduction of zinc ions in the reaction solution per unit mass of sample (mg/g).
Amino acid sequence identification was conducted using a Q Exactive hybrid quadrupole orbitrap mass spectrometer (Thermo Fisher, Bremen, Germany) coupled with Peak-Studio-7.5-De-Novo™ software (Bioinformatics Solutions, Inc., Waterloo, Canada) according to the method described by [Li et al. (2022)]. The DOPKGH sequences were verified by matching with the sequences of Elaeis guineensis recorded in the Biotechnology Information Database (Bethesda, MD, United States). The Zn-chelating ability of the obtained sequences was measured using the 4-(2-Pyridinazo)-resorcinol method ([Udechukwu et al., 2018]). […] In addition, the physicochemical characteristics of the screened DOPKGH sequences were analyzed using the AHTPDB database.

ACE [6] = biological target: T1, ACE; details: Val residue at the N-terminal; peptide from King Bolete mushrooms; ref Kaprasob et al., 2022; cited from earlier work
Excerpt: Moreover, Lys or Arg residues in C-terminal tripeptide are instrumental in the ACE-inhibitory ability of peptides ([Urbizo-Reyes et al., 2022]).

## O=C([O-])[C@H](O)[C@@H](O)[C@H](O)[C@H](O)CO.O=C([O-])[C@H](O)[C@@H](O)[C@H](O)[C@H](O)CO.[Zn+2] [zinc gluconate, Zinc gluconate]
[1]
  Zinc solubility compared with zinc sulfate: higher zinc solubility than that of zinc sulfate

## EVPQAYIP
ACE [2]; simulated gastric (pepsin, pH 2.0, 80 min) then intestinal (pancreatin, pH 6.8, 150 min) digestion, 37°C, versus untreated peptide
  ACE-inhibitory activity retained after gastrointestinal digestion: 71.23%
ACE [2]; simulated gastric digest (pepsin 0.35 mg/mL, pH 2.0) 37°C 80 min, then intestinal digest (pancreatin, bile salt, pH 6.8) 37°C 150 min, regression y = 13.536ln(x) ‒ 17.297, R2 = 0.9528, read-out: IC50 against ACE after gastrointestinal digestion
  IC50: 144 µM
ACE [3]
  IC50: 103 µM

## GNPLSP
ACE [4]; peptide derived from Arthrospira platensis, ref Wang et al., 2021, read-out: ACE inhibition IC50
  IC50: 264 µM

## PHQPLPP
ACE [4]; peptide identified in rubing cheese, ref Wei et al., 2022
  ACE inhibition IC50: 821 µg/mL

## QRLERCK [Gln-Arg-Leu-Asp-Arg-Cys-Lys, oligopeptide identified in defatted oil palm kernel globulin hydrolysates]
[5]
  Zinc chelating capacity: 17.30 ± 1.46^g mg/g

## VSWNVLQEP [literature peptide identified in King Bolete mushrooms]
ACE [6]
  Binding energy with ACE: -9.1 kcal/mol
